Reference: patent US20060069132A1, “Azolecarboxamide herbicides” (priority 2004, published 2006)
Where two headings read alike, the source gives them in different places.

Tests used:
barnyardgrass [1] = test: Test B pre-/postemergence herbicide test; format: in vivo, Echinochloa crus-galli; conditions: for pest or weed control at 500 g/ha: 500 g ai/ha
How it was run: (§1)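 Pre: seeds sown, then sprayed. Post: 1–4-leaf plants (2–18 cm) sprayed at the same time. Paddy: flooded, treated at 2-leaf stage. Formulation: non-phytotoxic solvent with surfactant. Greenhouse 13–15 days; visual 0–100 score relative to controls.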

Surinam grass = test: Test B pre-/postemergence herbicide test; format: in vivo, Urochloa decumbens; conditions: for pest or weed control at 500 g/ha: 500 g ai/ha
How it was run: (§2)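 Visual rating, 0 (no effect) to 100 (complete control), versus untreated controls after 13–15 d in greenhouse. Pre- and postemergence applications (postemergence plants 2–18 cm, 1–4 leaves); flooded paddy arm at 2-leaf stage. Compounds in non-phytotoxic solvent plus surfactant.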

cocklebur = test: Test B pre-/postemergence herbicide test; format: in vivo, Xanthium strumarium; conditions: for pest or weed control at 500 g/ha: 500 g ai/ha
How it was run: as §1

corn = test: Test B pre-/postemergence herbicide test; format: in vivo, Zea mays
How it was run: as §2

large crabgrass = test: Test B pre-/postemergence herbicide test; format: in vivo, Digitaria sanguinalis; conditions: for pest or weed control at 500 g/ha: 500 g ai/ha
How it was run: as §2

giant foxtail = test: Test B pre-/postemergence herbicide test; format: in vivo, Setaria faberi; conditions: for pest or weed control at 500 g/ha: 500 g ai/ha
How it was run: as §2

lambsquarters = test: Test B pre-/postemergence herbicide test; format: in vivo, Chenopodium album; conditions: for pest or weed control at 500 g/ha: 500 g ai/ha
How it was run: as §2

morningglory = test: Test B pre-/postemergence herbicide test; format: in vivo, Ipomoea coccinea; conditions: for pest or weed control at 500 g/ha: 500 g ai/ha
How it was run: as §1

pigweed = test: Test B pre-/postemergence herbicide test; format: in vivo, Amaranthus retroflexus; conditions: for pest or weed control at 500 g/ha: 500 g ai/ha
How it was run: as §2

velvetleaf = test: Test B pre-/postemergence herbicide test; format: in vivo, Abutilon theophrasti
How it was run: as §2

wheat = test: Test B postemergence herbicide test; format: in vivo, Triticum aestivum; conditions: Triticum aestivum, post-emergence, 336 h, read-out: Wheat plant response rating
How it was run: (§3)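 Each value is a visual 0–100 response rating taken against controls 13 to 15 days after treatment in the greenhouse. Plants received formulated chemical postemergence at the 1- to 4-leaf stage or, in flooded paddy, at the 2-leaf stage.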

wild oat = test: Test B postemergence herbicide test; format: in vivo, Avena fatua; conditions: Avena fatua, post-emergence, 336 h, read-out: Oat, Wild plant response rating
How it was run: as §3

rice = test: Test B flooded paddy test; format: in vivo, Oryza sativa; conditions: Oryza sativa, 336 h, 1000 g ai/ha, scale 0 to 100 (0 no effect, 100 complete control), read-out: Rice plant response rating
How it was run: (§4)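 Read-out: visual comparison with controls, scored 0 to 100, where 100 means complete control and 0 no effect. Formulated chemicals were applied postemergence to plants 2–18 cm tall (1- to 4-leaf), or to flooded-paddy plants at the 2-leaf stage, then held 13 to 15 days under glass.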

ducksalad = test: Test B flooded paddy test; format: in vivo, Heteranthera limosa; conditions: Heteranthera limosa, 336 h, 1000 g ai/ha, scale 0 to 100 (0 no effect, 100 complete control), read-out: Ducksalad plant response rating
How it was run: as §4

barnyardgrass [2] = test: Test B flooded paddy test; format: in vivo, Echinochloa crus-galli; conditions: Echinochloa crus-galli, 336 h, 1000 g ai/ha, scale 0 to 100 (0 no effect, 100 complete control), read-out: Barnyardgrass plant response rating
How it was run: as §4

[3] = 125 g ai/ha, 0 is no effect, 100 is complete control, preemergence
[4] = 125 g ai/ha, visual rating, scale 0 (no effect) to 100 (complete control)
[5] = postemergence, 500 g ai/ha, scale 0 to 100, 0 is no effect, 100 is complete control

CCOC(=O)c1cccc(NC(=O)c2nn(C(C)(C)C)nc2CC)c1 [Compound 360, ethyl 3-[[[2-(1,1-dimethylethyl)-5-ethyl-2H-1,2,3-triazol-4-yl]carbonyl]amino]benzoate]
Plant response rating (0 to 100 scale), Barnyardgrass (barnyardgrass [1]; [3]): 10 | pest or weed control at 125 g/ha (barnyardgrass [1]; Echinochloa crus-galli, post-emergence, 125 g ai/ha, visual rating, scale 0 (no effect) to 100 (complete control), read-out: Barnyardgrass plant response rating): 0% | pest or weed control at 500 g/ha (barnyardgrass [1]; Echinochloa crus-galli, post-emergence, postemergence, scale 0 to 100, 0 is no effect, 100 is complete control, read-out: Barnyardgrass plant response rating): 30% | pest or weed control at 500 g/ha (barnyardgrass [1]; Echinochloa crus-galli, pre-emergence, visual rating, 0 = no effect, 100 = complete control, read-out: Plant response rating, Barnyardgrass): 40% | Plant response rating (0 to 100 scale), Surinam Grass (Surinam grass; [3]): 20 | pest or weed control at 125 g/ha (Surinam grass; Urochloa decumbens, post-emergence, 125 g ai/ha, visual rating, scale 0 (no effect) to 100 (complete control), read-out: Surinam Grass plant response rating): 10% | pest or weed control at 500 g/ha (Surinam grass; Urochloa decumbens, post-emergence, postemergence, scale 0 to 100, 0 is no effect, 100 is complete control, read-out: Surinam Grass plant response rating): 30% | pest or weed control at 500 g/ha (Surinam grass; Urochloa decumbens, pre-emergence, visual rating, 0 = no effect, 100 = complete control, read-out: Plant response rating, Surinam Grass): 50% | Plant response rating (0 to 100 scale), Cocklebur (cocklebur; [3]): 0 | pest or weed control at 125 g/ha (cocklebur; Xanthium strumarium, post-emergence, 125 g ai/ha, visual rating, scale 0 (no effect) to 100 (complete control), read-out: Cocklebur plant response rating): 10% | pest or weed control at 500 g/ha (cocklebur; Xanthium strumarium, post-emergence, postemergence, scale 0 to 100, 0 is no effect, 100 is complete control, read-out: Cocklebur plant response rating): 20% | pest or weed control at 500 g/ha (cocklebur; Xanthium strumarium, pre-emergence, visual rating, 0 = no effect, 100 = complete control, read-out: Plant response rating, Cocklebur): 0% | Plant response rating (0 to 100 scale), Corn (corn; [3]): 10 | plant injury at 125 g/ha (corn; Zea mays, post-emergence, 125 g ai/ha, visual rating, scale 0 (no effect) to 100 (complete control), read-out: Corn plant response rating): 10% | plant injury at 500 g/ha (corn; Zea mays, post-emergence, postemergence, 500 g ai/ha, scale 0 to 100, 0 is no effect, 100 is complete control, read-out: Corn plant response rating): 20% | Corn plant response rating (crop injury, 0 = no effect, 100 = complete kill) at 500 g/ha (corn; Zea mays, pre-emergence, 500 g ai/ha, visual rating, 0 = no effect, 100 = complete control): 40% | Plant response rating (0 to 100 scale), Crabgrass, Large (large crabgrass; [3]): 40 | pest or weed control at 125 g/ha (large crabgrass; Digitaria sanguinalis, post-emergence, 125 g ai/ha, visual rating, scale 0 (no effect) to 100 (complete control), read-out: Crabgrass, Large plant response rating): 10% | pest or weed control at 500 g/ha (large crabgrass; Digitaria sanguinalis, post-emergence, postemergence, scale 0 to 100, 0 is no effect, 100 is complete control, read-out: Crabgrass, Large plant response rating): 20% | pest or weed control at 500 g/ha (large crabgrass; Digitaria sanguinalis, pre-emergence, visual rating, 0 = no effect, 100 = complete control, read-out: Plant response rating, Crabgrass, Large): 80% | Plant response rating (0 to 100 scale), Foxtail, Giant (giant foxtail; [3]): 50 | pest or weed control at 125 g/ha (giant foxtail; Setaria faberi, post-emergence, 336 h, 125 g ai/ha, visual rating, scale 0 (no effect) to 100 (complete control), read-out: Foxtail, Giant plant response rating): 30% | pest or weed control at 500 g/ha (giant foxtail; Setaria faberi, post-emergence, 336 h, postemergence, scale 0 to 100, 0 is no effect, 100 is complete control, read-out: Foxtail, Giant plant response rating): 50% | pest or weed control at 500 g/ha (giant foxtail; Setaria faberi, pre-emergence, 336 h, visual rating, 0 = no effect, 100 = complete control, read-out: Plant response rating, Foxtail, Giant): 90% | Plant response rating (0 to 100 scale), Lambsquarters (lambsquarters; [3]): 0 | pest or weed control at 125 g/ha (lambsquarters; Chenopodium album, post-emergence, 336 h, 125 g ai/ha, visual rating, scale 0 (no effect) to 100 (complete control), read-out: Lambsquarters plant response rating): 0% | pest or weed control at 500 g/ha (lambsquarters; Chenopodium album, post-emergence, 336 h, postemergence, scale 0 to 100, 0 is no effect, 100 is complete control, read-out: Lambsquarters plant response rating): 20% | pest or weed control at 500 g/ha (lambsquarters; Chenopodium album, pre-emergence, 336 h, visual rating, 0 = no effect, 100 = complete control, read-out: Plant response rating, Lambsquarters): 40% | Plant response rating (0 to 100 scale), Morningglory (morningglory; [3]): 0 | pest or weed control at 125 g/ha (morningglory; Ipomoea, post-emergence, 336 h, 125 g ai/ha, visual rating, scale 0 (no effect) to 100 (complete control), read-out: Morningglory plant response rating): 0% | pest or weed control at 500 g/ha (morningglory; Ipomoea, post-emergence, 336 h, postemergence, scale 0 to 100, 0 is no effect, 100 is complete control, read-out: Morningglory plant response rating): 10% | pest or weed control at 500 g/ha (morningglory; Ipomoea, pre-emergence, 336 h, visual rating, 0 = no effect, 100 = complete control, read-out: Plant response rating, Morningglory): 10% | Plant response rating (0 to 100 scale), Pigweed (pigweed; [3]): 20 | pest or weed control at 125 g/ha (pigweed; Amaranthus retroflexus, post-emergence, 336 h, 125 g ai/ha, visual rating, scale 0 (no effect) to 100 (complete control), read-out: Pigweed plant response rating): 30% | pest or weed control at 500 g/ha (pigweed; Amaranthus retroflexus, post-emergence, 336 h, postemergence, scale 0 to 100, 0 is no effect, 100 is complete control, read-out: Pigweed plant response rating): 40% | pest or weed control at 500 g/ha (pigweed; Amaranthus retroflexus, pre-emergence, 336 h, visual rating, 0 = no effect, 100 = complete control, read-out: Plant response rating, Pigweed): 50% | Plant response rating (0 to 100 scale), Velvetleaf (velvetleaf; [3]): 20 | pest or weed control at 125 g/ha (velvetleaf; Abutilon theophrasti, post-emergence, 336 h, 125 g ai/ha, visual rating, scale 0 (no effect) to 100 (complete control), read-out: Velvetleaf plant response rating): 40% | pest or weed control at 500 g/ha (velvetleaf; Abutilon theophrasti, post-emergence, 336 h, postemergence, 500 g ai/ha, scale 0 to 100, 0 is no effect, 100 is complete control, read-out: Velvetleaf plant response rating): 50% | plant injury at 125 g/ha (wheat; [4]): 30% | plant injury at 500 g/ha (wheat; [5]): 40% | pest or weed control at 125 g/ha (wild oat; [4]): 40% | pest or weed control at 500 g/ha (wild oat; [5]): 60% | plant injury at 1000 g/ha (rice): 50% | pest or weed control at 1000 g/ha (ducksalad): 70% | pest or weed control at 1000 g/ha (barnyardgrass [2]): 40%
